Results reported in US9840478B2 (MERCK SHARP & DOHME CORP., priority 2013, dated 2017).
Like-named read-outs stand apart in the source and are kept apart here.

Legend:
wildtype HIV-1 protease = molecular target: T1, wildtype HIV-1 protease (Human immunodeficiency virus type 1 group M subtype B, UniProt P04585); assay: Assay for inhibition of microbial expressed HIV protease (Pepcleav); assay type: biochemical; settings: wildtype HIV-1 protease expressed in E. coli; peptide substrate; mean of at least two independent experiments
T1 construct: preincubated with the HIV-1 protease (wild type) enzyme in assay buffer; made in house; host or cells: Escherichia coli
Method: Assay for Inhibition of Microbial Expressed HIV Protease (“Pepcleav”)
Studies of the inhibition of the wildtype HIV-1 protease (which was expressed in Escherichia coli) were carried out with a peptide substrate [Val-Ser-Gln-Asn-(βnaphtyl)Ala-Pro-Ile-Val]. The inhibitor is first preincubated with the HIV-1 protease (wild type) enzyme in assay buffer (50 mM sodium acetate, pH 5.5, 100 mM NaCl, and 0.1% BSA) for 30 minutes at room temperature. Substrate is added to 400 micromolar in a total volume of 20 microliters containing 20 picomolar HIV-1 protease (final) and the reaction is incubated for 1 hour at 30° C. The reaction is quenched with the addition of formic acid and indinavir to 0.012% and 150 nM final concentrations, respectively. The product formation is determined after separation of product and substrate on a Zorbax Eclipse XDB-C18 column connected to an API 4000 mass spectrometer (Applied Biosystems) with multiple reaction monitoring (transitions were 644.5/428.9 and 615.4/422.2 (M1/M3) for product and indinavir respectively). The extent of inhibition of the reaction is determined from the peak area of the products. Analysis of the products, independently synthesized, provided quantitation standards and confirmation of the product composition.

HIV-1 (H9IIIB strain) = assay: Cell-based HIV infection assay using a reporter (Cell-Based), MT4-GFP cells; settings: 50% normal human serum, mean of at least two independent experiments, read-out: Cell-based IP
Summary of the method: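 IC50 from 4-parameter dose-response of % viral growth inhibition, using the 48 h/24 h infected-cell ratio scaled between DMSO and a protease/integrase/NNRTI triple-drug control. Assay used MT4 cells with HIV-LTR-GFP reporter, pre-infected 24 h with HIV-1 H9IIIB, in 50% normal human serum.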

[1] = Human immunodeficiency virus 1, MT4-GFP cells infected with HIV-1 H9IIIB

Row | SMILES | IC50 (wildtype HIV-1 protease) [nM] | IC50 (HIV-1 (H9IIIB strain); MT4-GFP cells infected with HIV-1 H9IIIB) [nM] | IC50 (HIV-1 (H9IIIB strain); [1]) [nM]
1 | N[C@H](C(=O)Nc1cncc(F)c1CCC1CNCCN1S(=O)(=O)Cc1ccccc1)C(c1ccc(F)cc1)c1ccc(F)cc1 (stereo partly drawn) [Example 21, N-(4-{2-[1-(benzylsulfonyl)piperazin-2-yl]ethyl}-5-fluoropyridin-3-yl)-4-fluoro-β-(4-fluorophenyl)-L-phenylalaninamide] | 3.4 |  | 
2 | Nc1ccc(S(=O)(=O)N2CCNC[C@@H]2CCc2c(F)cncc2NC(=O)[C@@H](N)C(c2ccc(F)cc2)c2ccc(F)cc2)cc1 [Example 24, (S)-2-amino-N-(4-(2-((S)-1-((4-aminophenyl)sulfonyl)piperazin-2-yl)ethyl)-5-fluoropyridin-3-yl)-3,3-bis(4-fluorophenyl) propanamide] | 0.2 |  | 
3 | C[C@H]1CNC[C@H](CCc2c(F)cccc2NC(=O)[C@@H](N)[C@@H](c2ccc(F)cc2)c2cc(F)cc(F)c2)N1S(C)(=O)=O [Example 96, (βS)-β-(3,5-difluorophenyl)-4-fluoro-N-(3-fluoro-2-{2-[(2S,6S)-6-methyl-1-(methylsulfonyl)piperazin-2-yl]ethyl}phenyl)-L-phenylalaninamide] | 6.1 | 24 | 
4 | CS(=O)(=O)N1CCNC[C@@H]1CCc1c(F)cncc1NC(=O)[C@@H](N)[C@@H](c1ccc(F)cc1)c1cc(F)cc(F)c1 [Example 26, (2S,3S)-2-amino-3-(3,5-difluorophenyl)-N-(5-fluoro-4-(2-((S)-1-(methylsulfonyl)piperazin-2-yl)ethyl)pyridin-3-yl)-3-(4-fluorophenyl)propanamide] | 3.5 |  | 
5 | O=C(C[C@@H](c1ccc(F)cc1)c1cc(F)cc(F)c1)Nc1cncc(F)c1CC[C@H]1CNCCN1S(=O)(=O)C1CC1 [Example 303, (3S)-N-(4-{2-[(2S)-1-(cyclopropylsulfonyl)piperazin-2-yl]ethyl}-5-fluoropyridin-3-yl)-3-(3,5-difluorophenyl)-3-(4-fluorophenyl)propanamide] | 5 |  | 14
6 | Nc1ccc(S(=O)(=O)N2CCNC[C@H]2CCc2c(F)cncc2NC(=O)[C@@H](N)C(c2ccc(F)cc2)c2ccc(F)cc2)cc1 [Example 25, (S)-2-amino-N-(4-(2-((R)-1-((4-aminophenyl)sulfonyl)piperazin-2-yl)ethyl)-5-fluoropyridin-3-yl)-3,3-bis(4-fluorophenyl) propanamide] | 1.3 |  | 
7 | O=C(C[C@@H](c1ccc(F)cc1)c1cc(F)cc(F)c1)Nc1cncc(F)c1CC[C@H]1CNCCN1S(=O)(=O)N1CC[C@@H](NC(=O)C(F)(F)F)C1 [Example 338, (3S)-3-(3,5-difluorophenyl)-3-(4-fluorophenyl)-N-(5-fluoro-4-{2-[(2S)-1-({(3R)-3-[(trifluoroacetyl)amino]pyrrolidin-1-yl}sulfonyl)piperazin-2-yl]ethyl}pyridin-3-yl)propanamide] | 130 |  | 660
8 | N[C@H](C(=O)Nc1cccc(F)c1CC[C@H]1CNCCN1S(=O)(=O)c1ccccc1)C(c1cccc(F)c1)c1cccc(F)c1 [Example 40, 3-fluoro-β-(3-fluorophenyl)-N-(3-fluoro-2-{2-[(2S)-1-(phenylsulfonyl)piperazin-2-yl]ethyl}phenyl)-L-phenylalaninamide] | 0.03 |  | 4.8
9 | CC(C)[C@H](c1ccc(F)cc1)[C@H](N)C(=O)Nc1cncc(F)c1CC[C@H]1CNCCN1S(=O)(=O)C1CC1 [Example 64, (βR)-N-(4-{2-[(2S)-1-(cyclopropylsulfonyl)piperazin-2-yl]ethyl}-5-fluoropyridin-3-yl)-4-fluoro-β-(1-methylethyl)-L-phenylalaninamide] | 70 |  | 95
10 | O=C(CC1(c2ccccc2)CCCNC1)Nc1cncc(F)c1CC[C@H]1CNCCN1S(=O)(=O)C1CC1 (stereo partly drawn) [Example 63, N-(4-{2-[(2S)-1-(cyclopropylsulfonyl)piperazin-2-yl]ethyl}-5-fluoropyridin-3-yl)-2-(3-phenylpiperidin-3-yl)acetamide] | 1300 |  | 
11 | CS(=O)(=O)N1CCNC[C@H]1CCc1c(F)cncc1NC(=O)[C@@H](N)C(c1ccc(F)cc1)c1ccc(F)cc1 [Example 2, 2S-Amino-3,3-di-(4-fluorophenyl)-N-(5-fluoro-4-(2-(1-methylsulfonylpiperazin-2-yl)ethyl)pyridin-3-yl)propanamide] | 1400 |  | 
12 | O=C(C[C@@H](c1ccc(F)cc1)c1cc(F)cc(F)c1)Nc1cncc(F)c1CC[C@H]1CNCCN1C(=O)Nc1ccccc1 [Example 342, (2S)-2-[2-(3-{[(3S)-3-(3,5-difluorophenyl)-3-(4-fluorophenyl)propanoyl]amino}-5-fluoropyridin-4-yl)ethyl]-N-phenylpiperazine-1-carboxamide] | 250 |  | 
13 | N[C@H](C(=O)Nc1cncc(F)c1CC[C@@H]1CNCCN1S(=O)(=O)c1ccccc1)C(c1ccc(F)cc1)c1ccc(F)cc1 [Example 23, (S)-2-amino-N-(5-fluoro-4-(2-((R)-1-(phenylsulfonyl)piperazin-2-yl)ethyl)pyridin-3-yl)-3,3-bis(4-fluorophenyl) propanamide] | 10 |  | 
14 | O=C(C[C@@H](c1ccc(F)cc1)c1cc(F)cc(F)c1)Nc1cncc(F)c1CC[C@H]1CNCCN1S(=O)(=O)N1CC[C@@H](F)C1 [Example 327, (3S)-3-(3,5-difluorophenyl)-N-(5-fluoro-4-{2-[(2)S-1-{[(3R)-3-fluoropyrrolidin-1-yl]sulfonyl}piperazin-2-yl]ethyl}pyridin-3-yl)-3-(4-fluorophenyl)propanamide] |  |  | 9.4
15 | COC(=O)N[C@H](C(=O)Nc1cccc(F)c1CC[C@H]1CNC[C@H](C)N1S(=O)(=O)C1CC1)[C@@H](c1ccc(F)cc1)c1cc(F)cc(F)c1 [Example 212, (βS)-N-(2-{2-[(2S,6S)-1-(cyclopropylsulfonyl)-6-methylpiperazin-2-yl]ethyl}-3-fluorophenyl)-β-(3,5-difluorophenyl)-4-fluoro-Nα-(methoxycarbonyl)-L-phenylalaninamide] |  |  | 13
16 | COC(=O)N[C@H](C(=O)Nc1cccc(F)c1CC[C@H]1CNC[C@H](C)N1S(=O)(=O)c1ccccc1)[C@@H](c1ccc(F)cc1)C1CCOCC1 [Example 7, Methyl ((2S,3R)-1-((3-fluoro-2-(2-((2S,6S)-6-methyl-1-(phenylsulfonyl)piperazin-2-yl)ethyl)phenyl)amino)-3-(4-fluorophenyl)-1-oxo-3-(tetrahydro-2H-pyran-4-yl)propan-2-yl)carbamate] |  |  | 6
17 | C[C@H]1CNC[C@H](CCc2c(F)cccc2NC(=O)[C@@H](N)[C@H](c2cncc(F)c2)c2cccc(Cl)c2)N1S(=O)(=O)c1ccccc1 [Example 219, (βS)-3-chloro-N-(3-fluoro-2-{2-[(2S,6S)-6-methyl-1-(phenylsulfonyl)piperazin-2-yl]ethyl}phenyl)-β-(5-fluoropyridin-3-yl)-L-phenylalaninamide] |  |  | 25
18 | C[C@@H]1CNC[C@H](CCc2c(F)cccc2NC(=O)[C@@H](N)[C@@H](c2ccc(F)cc2)c2cc(F)cc(F)c2)N1S(=O)(=O)c1ccccc1Cl [Example 230, (βS)-N-[2-(2-{(2S,6R)-1-[(2-chlorophenyl)sulfonyl]-6-methylpiperazin-2-yl}ethyl)-3-fluorophenyl]-β-(3,5-difluorophenyl)-4-fluoro-L-phenylalaninamide] |  |  | 290
19 | C[C@@H]1CNC[C@H](CCc2c(F)cccc2NC(=O)[C@@H](N)[C@@H](c2ccc(F)c(F)c2)C2CCOCC2)N1S(=O)(=O)c1ccccc1 [Example 288, (βR)-3,4-difluoro-N-(3-fluoro-2-{2-[(2S,6R)-6-methyl-1-(phenylsulfonyl)piperazin-2-yl]ethyl}phenyl)-β-(tetrahydro-2H-pyran-4-yl)-L-phenylalaninamide] |  |  | 23
20 | Cn1cc(S(=O)(=O)N2CCNC[C@@H]2CCc2c(F)cncc2NC(=O)C[C@@H](c2ccc(F)cc2)c2cc(F)cc(F)c2)cn1 [Example 316, (3S)-3-(3,5-difluorophenyl)-N-[5-fluoro-4-(2-{(2S)-1-[(1-methyl-1H-pyrazol-4-yl)sulfonyl]piperazin-2-yl}ethyl)pyridin-3-yl]-3-(4-fluorophenyl)propanamide] |  |  | 19
21 | C[C@H]1CNC[C@H](CCc2c(F)cccc2NC(=O)[C@@H](N)[C@@H](c2ccc(Cl)cc2)c2cccc(F)c2)N1S(=O)(=O)c1ccccc1 [Example 101, (βS)-4-chloro-N-(3-fluoro-2-{2-[(2S,6S)-6-methyl-1-(phenylsulfonyl)piperazin-2-yl]ethyl}phenyl)-β-(3-fluorophenyl)-L-phenylalaninamide] |  |  | 24
22 | CS(=O)(=O)N1[C@@H](CCc2c(F)cccc2NC(=O)[C@@H](N)C(c2ccc(F)cc2)c2ccc(F)cc2)CNCC12CC2 [Example 367, (S)-2-amino-N-(3-fluoro-2-(2-((S)-4-(methylsulfonyl)-4,7-diazaspiro[2.5]octan-5-yl)ethyl)phenyl)-3,3-bis(4fluorophenyl)propanamide] |  |  | 47
